Assay results published in PMC11436758, “Computer-aided drug design to generate a unique antibiotic family” (Nature Communications, 2024).
Converted amounts (≈) assume the structure as drawn. “And” between values parts separate entries of the source, which are not always exact repeats. Equal values may be shown once.

What was measured:
[1] = test system: 102 ATCC strains and clinical isolates of Staphylococcus, Streptomyces, and Enterococcus; assay: MIC panel summary over all strains; assay type: cell-based; conditions: of the seven strains above 2 μg/mL
Method: We also sought to determine if DNM0547 was bacteriostatic or bactericidal. Time kill experiments were carried out using increasing doses of DNM0547 against two different strains of MRSA.
The medium employed for the assay was Mueller Hinton II Broth (MHB II; Becton-Dickinson, Sparks, MD, USA). Agar plates used for the organisms were trypticase soy agar plus 5% sheep blood (BD; Sparks, MD, USA). MIC assay plates were prepared using the CLSI broth microdilution procedure. Automated liquid handlers (Multidrop 384, Biomek 2000 and Biomek FX) were used to conduct serial dilutions and liquid transfers. A standardized inoculum of each organism was prepared per CLSI methods. Suspensions were prepared to equal a 0.5 McFarland standard, followed by a 1:20 dilution in test media. The inocula were dispensed into sterile reservoirs divided by length (Beckman Colter) and the Biomek 2000 was used to inoculate the plates. Daughter plates were placed on the Biomek 2000 work surface in reverse orientation so that inoculation took place from low to high drug concentration. The Biomek 2000 delivered 10 μL of the diluted suspension into each well. These inoculations yielded a final cell concentration in the daughter plates of ~5 × 10^5 colony-forming units/mL in each well. The wells of the daughter plates ultimately contained 185 μL of broth, 5 μL of drug solution, and 10 μL of bacterial inoculum. Plates were covered with a sterile lid on the top plate, placed in plastic bags, and incubated at 35 °C for ~18 h. The microplates were viewed from the bottom using a plate viewer and the MIC was read. The MIC was recorded as the lowest concentration of drug that inhibited visible growth of the organism.

MRSA (ATCC 33591) = assay: Mouse cellulitis model of infection, topical treatment; assay type: in vivo, SKH1 mice; conditions: for Wound size (mm2), Mean / Wound size (mm2): Fig 2d
Method: SKH1 mice from Charles River were used and male and female mice were utilized, sample size prevented disaggregation of data by sex. Mice were housed with a 12 h light and dark cycle at 21 °C in relative humidity of 40–50%. Investigators were blinded to group allocation, data collection, and data analysis. The formulation for delivery of DNM0547 was Glaxal base (WellSpring Pharmaceutical Canada Corp., Oakville, Canada). Formulation was performed by dissolving compound in Glaxal base to give final concentrations of 2% DNM0547 compound (w/v). MRSA (ATCC #33591) were grown to mid-log phase, concentrated by centrifugation and suspended in sterile PBS at a stock concentration of 2 × 10^11 CFU/mL.
Four week old mice were anesthetized and injected intradermally with 1 × 10^8 CFU/mouse. 4 h after injection, mice were treated with 50 μl 2% DNM0547 cream, or excipient alone. Lesion dimensions were recorded daily for seven days. Food and water were given ad libidum. On day seven, mice were euthanized and the lesion area aseptically removed to 3 mL sterile PBS. The samples were homogenized and serial dilutions were plated on blood agar and incubated at 37 °C to determine CFU. The mouse model of skin infection was performed and evaluated with Washington Biotechnology Inc (Baltimore, MD, USA).

[2] = test system: E. coli D22 over-expressing AcpS; assay: MIC upon IPTG-induced over-expression of MBP-AcpS (MBP only as control); assay type: cell-based
Source text: Over-expression of AcpS was confirmed by western blot (Supplementary Fig. 6b). This is consistent with inhibition of AcpS being the major mechanism of action for the antimicrobial activity of DNM0547.
Supplementary Figure 6. Increased expression of AcpS increases the MIC of DNM0547. a , the minimum inhibitory concentration (MIC; µg/ml) of the D22 strain of E. coli upon expression of plasmid borne maltose binding protein (MBP) AcpS from an IPTG inducible promoter versus just over-expression of MBP only. The D22 strain of E. coli has a porous outer membrane due to a point mutation in the lpxC gene enabling some compounds to enter the cell that can not permeate wild type E. coli. AcpS is expressed as a fusion with MBP. MICs were determined upon IPTG induction of MBP-AcpS with expression of just MBP used as control. b, western blot against MBP (New England Biolabs E8032S, 1:1000 dilution) to assess expression; IPTG induced expression of MBP and MBP-AcpS at the expected M Wts. c, equal protein was added from each E. coli protein extract used for the western blot. Ponceau stain of the membrane to assess protein loading and transfer.
(also on this page, place not known: DH5a BL 21 D 22 pMAL pMAL pAcpS pAcpS pMAL pMAL pAcpS pAcpS pMAL + pMAL pAcpS + pAcpS - - + - + - + - + - a, AcpS MBP M Compound MBP MBP-AcpS DNM0547 32 256) […]

[3] = 2% cream for 7 days, versus vehicle control

## CC(C)c1cc(Cl)ccc1-c1cc(-c2nnn[nH]2)c(-c2ccc(Cl)cc2C(C)C)s1 [DNM0547]
[1]
  number of strains with MIC 4 μg/mL: four
  number of strains with MIC 8 μg/mL: two
  number of strains with MIC 32 μg/mL: one
MRSA (ATCC 33591); [3]
  reduction in wound size: 4 fold
  reduction of bacterial load: > 98%
MRSA (ATCC 33591); Fig 2e, individual animals
  CFUs: 66 CFUs and 3900 CFUs and 0 CFUs (2×) and 57 CFUs
MRSA (ATCC 33591); Day 1
  Wound size (mm2), Mean: 14.643 mm2
MRSA (ATCC 33591); Day 2
  Wound size (mm2), Mean: 24.6313 mm2
MRSA (ATCC 33591); Day 3
  Wound size (mm2), Mean: 14.2828 mm2
MRSA (ATCC 33591); Day 4
  Wound size (mm2), Mean: 14.2975 mm2
MRSA (ATCC 33591); Day 5
  Wound size (mm2), Mean: 12.6205 mm2
MRSA (ATCC 33591); Day 6
  Wound size (mm2), Mean: 11.8387 mm2
MRSA (ATCC 33591); Day 7
  Wound size (mm2), Mean: 14.2246 mm2
MRSA (ATCC 33591); individual animals, Day 1
  Wound size (mm2): 12.5374 mm2 and 14.3799 mm2 and 14.54 mm2 and 15.8884 mm2 and 15.87 mm2
MRSA (ATCC 33591); individual animals, Day 2
  Wound size (mm2): 25.0932 mm2 and 30.8908 mm2 and 21.02 mm2 and 14.3128 mm2 and 31.84 mm2
MRSA (ATCC 33591); individual animals, Day 3
  Wound size (mm2): 14.5538 mm2 and 21.2799 mm2 and 9.59 mm2 and 10.8726 mm2 and 15.12 mm2
MRSA (ATCC 33591); individual animals, Day 4
  Wound size (mm2): 15.4052 mm2 and 19.652 mm2 and 13.70 mm2 and 11.5756 mm2 and 11.16 mm2
MRSA (ATCC 33591); individual animals, Day 5
  Wound size (mm2): 9.8797 mm2 and 13.6551 mm2 and 8.00 mm2 and 10.1736 mm2 and 21.40 mm2
MRSA (ATCC 33591); individual animals, Day 6
  Wound size (mm2): 12.7154 mm2 and 14.2046 mm2 and 11.72 mm2 and 7.547 mm2 and 13.01 mm2
MRSA (ATCC 33591); individual animals, Day 7
  Wound size (mm2): 15.755 mm2 and 18.619 mm2 and 16.44 mm2 and 5.851 mm2 and 14.46 mm2
[2]; E. coli D22, IPTG-induced MBP only (control)
  MIC: 32 µg/mL (≈ 70 µM)
[2]; E. coli D22, IPTG-induced MBP-AcpS
  MIC: 256 µg/mL (≈ 560 µM)
[2]; Escherichia coli, E. coli D22 with over-expression of AcpS
  MIC: 256 µg/mL (≈ 560 µM)
[2]; Escherichia coli, Suppl Fig 6a, MBP (control), replicates
  MIC: 32 µg/mL (≈ 70 µM)
[2]; Escherichia coli, Suppl Fig 6a, MBP-AcpS, replicates
  MIC: 256 µg/mL (≈ 560 µM)
[2]; Suppl Fig 6a, MBP (control), replicates
  MIC: 32 µg/mL (≈ 70 µM)
[2]; Suppl Fig 6a, MBP-AcpS, replicates
  MIC: 256 µg/mL and >256 µg/mL
